Our source for the TGI and GI50 values is PubChem BioAssay (NCI).

Test systems include MDA-MB-435; MALME-3M melanoma; MOLT-4 leukemia; NCI-H522 lung; NCI-H226 lung; TK-10 renal; SK-OV-3 ovarian; NCI-H23 lung; ACHN renal; M14 melanoma.
Common to all, as to assay: NCI anticancer screen, dose series, 48 h

Values joined by “and” are separate entries in the source; they are usually repeats but may differ in a detail not shown here. Equal values may be shown once.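 Test compounds were applied to cells in 96-well plates for 48 hours at 5 doses. Abbreviation: GI50, concentration required for 50% inhibition of growth. The concentration for full growth arrest is given as TGI.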

In the case of `CC(=O)O[C@H]1CCC2[C@@H]3CC[C@]4(C)CC(=O)C=C[C@]4(C)C3CC[C@@]21C` (some centres undefined), the TGI in the test with MDA-MB-435 was 94.7 µM; in the test with MALME-3M melanoma it was 34.3 µM; in the test with MOLT-4 leukemia it was 47.9 µM; in the test on NCI-H522 lung, 76.9 µM; in the test on NCI-H226 lung, more than 77.7 µM; with TK-10 renal, more than 100 µM. For the same compound, the TGI with SK-OV-3 ovarian is more than 100 µM; with NCI-H23 lung, 53.8 µM; in the test on ACHN renal it was more than 100 µM; with M14 melanoma, 34.1 µM.

As for `CC1=C(/C=C/Cl)CC(Cl)C(C)(Cl)C1` (centres undefined), the TGI with MDA-MB-435, in the test on MALME-3M melanoma, in the test on MOLT-4 leukemia, with NCI-H522 lung, in the test on NCI-H226 lung and in the test with TK-10 renal was more than 100 µM each time. The TGI in the test on SK-OV-3 ovarian, in the test on NCI-H23 lung, with ACHN renal and in the test on M14 melanoma was more than 100 µM in each case.

For `CC1=CC(=O)C=CC1=O`, the GI50 in the test with MDA-MB-435 is 12.3 µM; in the test on MALME-3M melanoma it was 13.1 µM and 13.7 µM; in the test on MOLT-4 leukemia, 3.29 µM and 3.22 µM; in the test on NCI-H522 lung it was 11.2 µM and 1.67 µM; with NCI-H226 lung it was 20.4 µM and 33.1 µM; in the test on TK-10 renal, 20.8 µM and 16.9 µM. Also, the GI50 was 37.5 µM and 25.5 µM in the test with SK-OV-3 ovarian; 26.6 µM and 20.5 µM in the test with NCI-H23 lung; 15.9 µM and 2.94 µM with ACHN renal; 22.7 µM and 20.5 µM in the test with M14 melanoma. Further, the TGI in the test on MDA-MB-435 was 25.4 µM; with MALME-3M melanoma, 29.7 µM and 27.8 µM; in the test on NCI-H522 lung it was 24 µM and 4.1 µM; with NCI-H226 lung, 48.6 µM and 240 µM; in the test on TK-10 renal, 36.4 µM and 30.7 µM; in the test on SK-OV-3 ovarian it was 93.8 µM. The TGI in the test on NCI-H23 lung is 60 µM; with ACHN renal, 29.4 µM and 10.1 µM; with M14 melanoma, 67.1 µM and 48.5 µM.

`CCc1nc2cc(F)c(/C=C/C(=O)NO)cc2c(=O)n1CCc1ccccc1`: the GI50 was 0.445 µM in the test on MDA-MB-435; 0.216 µM in the test on MALME-3M melanoma; 0.353 µM with MOLT-4 leukemia; 0.171 µM with NCI-H522 lung; 0.371 µM in the test on NCI-H226 lung; 0.256 µM in the test on TK-10 renal. The GI50 with SK-OV-3 ovarian is 0.263 µM; in the test on NCI-H23 lung it was 0.375 µM; in the test with ACHN renal it was 0.343 µM; in the test with M14 melanoma it was 0.355 µM. For the same compound, the TGI amounted to 11.5 µM in the test on MDA-MB-435; 0.907 µM in the test with MALME-3M melanoma; 29.1 µM with MOLT-4 leukemia; 0.392 µM in the test on NCI-H522 lung; 7.36 µM with NCI-H226 lung; 0.838 µM with TK-10 renal. Besides, the TGI in the test on SK-OV-3 ovarian came to 0.787 µM; in the test with NCI-H23 lung it was 7.07 µM; with ACHN renal it was 2.56 µM; with M14 melanoma, 4.78 µM.

For the compound `Cc1cc(C(=O)Nc2ccc3cc(CN4CCOCC4)ccc3n2)c(C)n1-c1ccccc1`, the GI50 in the test with MDA-MB-435 was 1.38 µM; in the test with MALME-3M melanoma, 1.89 µM; in the test on MOLT-4 leukemia, 0.812 µM; with NCI-H522 lung, 2.67 µM; in the test with NCI-H226 lung it was 0.374 µM; in the test on TK-10 renal, 4.75 µM. Besides, the GI50 is 4.54 µM with SK-OV-3 ovarian, 0.974 µM with NCI-H23 lung, 2.6 µM in the test on ACHN renal and 1.81 µM in the test on M14 melanoma. Moreover, the TGI in the test with MDA-MB-435 amounted to 5.22 µM; in the test with MALME-3M melanoma it was 8.66 µM; in the test on MOLT-4 leukemia it was 3.29 µM; in the test on NCI-H522 lung, 9.38 µM; with NCI-H226 lung it was 5.92 µM; with TK-10 renal, 58.5 µM. In addition, the TGI was found to be 40.2 µM in the test on SK-OV-3 ovarian, 6.77 µM in the test with NCI-H23 lung, 42.3 µM in the test with ACHN renal and 5.71 µM with M14 melanoma.

Take `O=C1/C(=C(/c2ccccc2)N2CCOCC2)Cc2ccccc21`: the GI50 in the test with MDA-MB-435 is 2.17 µM; in the test on MALME-3M melanoma, 1.28 µM; in the test with MOLT-4 leukemia it was more than 100 µM; with NCI-H522 lung, 0.492 µM; in the test on NCI-H226 lung, 3.39 µM; in the test with TK-10 renal, 1.29 µM. Further, the GI50 in the test with SK-OV-3 ovarian is 23.1 µM; in the test with NCI-H23 lung it was 2.64 µM; with ACHN renal, 1.64 µM; in the test with M14 melanoma it was 1.84 µM. The TGI in the test on MDA-MB-435 is 6.87 µM; with MALME-3M melanoma it was 3.08 µM; in the test on MOLT-4 leukemia, more than 100 µM; in the test on NCI-H522 lung, 1.89 µM; in the test on NCI-H226 lung, 8.99 µM; in the test with TK-10 renal it was 2.66 µM. For the same compound, the TGI was 72.6 µM in the test with SK-OV-3 ovarian, 8.38 µM with NCI-H23 lung, 3.69 µM with ACHN renal and 4.67 µM in the test on M14 melanoma.

Consider `N#Cc1cc(-c2cc3ccccc3o2)oc1N`, for which the GI50 in the test with MDA-MB-435 was 3.69 µM; in the test with MALME-3M melanoma, 2.45 µM; with MOLT-4 leukemia, 1.94 µM; in the test with NCI-H522 lung, 2.41 µM; with NCI-H226 lung, 3.12 µM; in the test on TK-10 renal it was 6.61 µM. Moreover, the GI50 with SK-OV-3 ovarian is 2.38 µM; in the test with NCI-H23 lung it was 3.9 µM; in the test with ACHN renal, 3 µM; in the test with M14 melanoma, 6.11 µM. Moreover, the TGI in the test with MDA-MB-435 amounted to 16.9 µM; with MALME-3M melanoma, 6.98 µM; with MOLT-4 leukemia, 6.64 µM; in the test on NCI-H522 lung, 12.6 µM; with NCI-H226 lung it was 13.4 µM; in the test on TK-10 renal, 34.8 µM. In addition, the TGI came to 7.15 µM in the test on SK-OV-3 ovarian, 22.8 µM in the test with NCI-H23 lung, 11.1 µM in the test with ACHN renal and 22 µM with M14 melanoma.

As to `CCNCCNc1cc(-c2ccc(C(F)(F)F)cc2)c(C#N)c2nc3ccccc3n12`, the GI50 in the test on MDA-MB-435 is 1.28 µM; with MALME-3M melanoma, 1.74 µM; with MOLT-4 leukemia it was 1.31 µM; in the test on NCI-H522 lung, 1.82 µM; in the test on NCI-H226 lung, 1.7 µM; with TK-10 renal, 2.14 µM. Further, the GI50 with SK-OV-3 ovarian is 1.66 µM; with NCI-H23 lung, 1.62 µM; with ACHN renal, 1.24 µM; in the test on M14 melanoma it was 1.66 µM. Besides, the TGI in the test with MDA-MB-435 came to 2.56 µM; in the test with MALME-3M melanoma it was 3.34 µM; in the test with MOLT-4 leukemia, 3.29 µM; with NCI-H522 lung it was 3.66 µM; with NCI-H226 lung it was 3.53 µM; in the test with TK-10 renal, 3.76 µM. In addition, the TGI in the test on SK-OV-3 ovarian was found to be 3.17 µM; in the test with NCI-H23 lung it was 3.25 µM; with ACHN renal, 2.64 µM; with M14 melanoma, 3.16 µM.
